# Reference: ChEMBL document CHEMBL1201862, “PubChem BioAssay data set” (2004)
# Active and inactive are the calls of the source.
# How the values were obtained:
# Caspase-3 = target: T1, Caspase-3 (Homo sapiens, UniProt P42574); assay: inhibition of recombinant caspase-3 activity – biochemical, luminescence, set 2, selectivity assay for SENP protease inhibitor project, SAR follow-up (AID 588599); type: functional
# T1 sequence (P42574 whole entry): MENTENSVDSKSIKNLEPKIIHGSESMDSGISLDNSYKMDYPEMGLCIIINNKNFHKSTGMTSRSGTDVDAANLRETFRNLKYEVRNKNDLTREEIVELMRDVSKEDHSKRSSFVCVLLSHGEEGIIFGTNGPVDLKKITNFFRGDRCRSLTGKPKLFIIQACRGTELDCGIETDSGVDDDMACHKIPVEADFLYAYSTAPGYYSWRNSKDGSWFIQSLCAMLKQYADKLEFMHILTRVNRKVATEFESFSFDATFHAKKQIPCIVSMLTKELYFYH
# [1] = target: T2, Sentrin-specific protease 6 (Homo sapiens, UniProt Q9GZR1); assay: inhibition of human SENP6 catalytic domain – biochemical, luminescence, set 2, SAR follow-up (AID 588598); type: functional
# T2 sequence (Q9GZR1 whole entry): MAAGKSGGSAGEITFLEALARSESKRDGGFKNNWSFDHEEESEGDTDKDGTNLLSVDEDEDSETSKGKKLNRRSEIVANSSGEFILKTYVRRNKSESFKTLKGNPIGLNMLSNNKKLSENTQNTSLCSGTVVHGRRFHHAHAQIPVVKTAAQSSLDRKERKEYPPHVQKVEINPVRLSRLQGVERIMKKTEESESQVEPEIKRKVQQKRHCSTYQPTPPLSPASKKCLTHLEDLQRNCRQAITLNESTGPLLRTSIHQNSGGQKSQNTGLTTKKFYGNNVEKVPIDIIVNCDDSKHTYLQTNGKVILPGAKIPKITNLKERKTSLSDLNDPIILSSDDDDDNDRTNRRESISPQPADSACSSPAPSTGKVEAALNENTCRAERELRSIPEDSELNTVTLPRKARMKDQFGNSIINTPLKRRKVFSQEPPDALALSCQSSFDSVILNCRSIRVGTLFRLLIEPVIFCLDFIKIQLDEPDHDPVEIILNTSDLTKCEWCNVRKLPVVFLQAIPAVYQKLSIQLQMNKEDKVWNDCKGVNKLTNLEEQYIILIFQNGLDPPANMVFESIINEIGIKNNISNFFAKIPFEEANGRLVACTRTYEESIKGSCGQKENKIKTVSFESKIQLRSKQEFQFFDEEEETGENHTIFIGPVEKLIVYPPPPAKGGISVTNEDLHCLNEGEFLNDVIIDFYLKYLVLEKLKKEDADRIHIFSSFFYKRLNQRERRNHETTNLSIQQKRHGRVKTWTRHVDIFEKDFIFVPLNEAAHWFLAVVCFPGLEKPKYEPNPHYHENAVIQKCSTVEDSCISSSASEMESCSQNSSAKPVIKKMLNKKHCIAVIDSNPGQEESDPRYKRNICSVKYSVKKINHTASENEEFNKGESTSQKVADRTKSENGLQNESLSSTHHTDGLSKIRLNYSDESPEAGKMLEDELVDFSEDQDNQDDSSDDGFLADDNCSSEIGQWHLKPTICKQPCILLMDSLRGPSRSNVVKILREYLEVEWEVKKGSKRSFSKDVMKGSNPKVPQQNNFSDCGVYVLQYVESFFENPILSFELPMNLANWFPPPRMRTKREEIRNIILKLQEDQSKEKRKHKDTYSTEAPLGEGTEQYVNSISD
# [2] = target: T3, Sentrin-specific protease 8 (Homo sapiens, UniProt Q96LD8); assay: inhibition of sentrin protease 8 – biochemical, luminescence, set 2, SAR follow-up (AID 588601); type: functional
# T3 sequence (Q96LD8 whole entry): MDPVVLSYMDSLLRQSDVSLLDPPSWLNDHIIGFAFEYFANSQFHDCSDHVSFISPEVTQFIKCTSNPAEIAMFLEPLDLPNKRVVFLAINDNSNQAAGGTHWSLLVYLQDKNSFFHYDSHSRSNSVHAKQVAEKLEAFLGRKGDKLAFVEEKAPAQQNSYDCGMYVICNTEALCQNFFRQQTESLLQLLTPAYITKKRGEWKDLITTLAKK
# [3] = target: T4, Sentrin-specific protease 7 (Homo sapiens, UniProt Q9BQF6); assay: inhibition of human SENP7 cleavage activity – biochemical, luminescence, set 2, SAR follow-up (AID 588600); type: functional
# T4 sequence (Q9BQF6 whole entry): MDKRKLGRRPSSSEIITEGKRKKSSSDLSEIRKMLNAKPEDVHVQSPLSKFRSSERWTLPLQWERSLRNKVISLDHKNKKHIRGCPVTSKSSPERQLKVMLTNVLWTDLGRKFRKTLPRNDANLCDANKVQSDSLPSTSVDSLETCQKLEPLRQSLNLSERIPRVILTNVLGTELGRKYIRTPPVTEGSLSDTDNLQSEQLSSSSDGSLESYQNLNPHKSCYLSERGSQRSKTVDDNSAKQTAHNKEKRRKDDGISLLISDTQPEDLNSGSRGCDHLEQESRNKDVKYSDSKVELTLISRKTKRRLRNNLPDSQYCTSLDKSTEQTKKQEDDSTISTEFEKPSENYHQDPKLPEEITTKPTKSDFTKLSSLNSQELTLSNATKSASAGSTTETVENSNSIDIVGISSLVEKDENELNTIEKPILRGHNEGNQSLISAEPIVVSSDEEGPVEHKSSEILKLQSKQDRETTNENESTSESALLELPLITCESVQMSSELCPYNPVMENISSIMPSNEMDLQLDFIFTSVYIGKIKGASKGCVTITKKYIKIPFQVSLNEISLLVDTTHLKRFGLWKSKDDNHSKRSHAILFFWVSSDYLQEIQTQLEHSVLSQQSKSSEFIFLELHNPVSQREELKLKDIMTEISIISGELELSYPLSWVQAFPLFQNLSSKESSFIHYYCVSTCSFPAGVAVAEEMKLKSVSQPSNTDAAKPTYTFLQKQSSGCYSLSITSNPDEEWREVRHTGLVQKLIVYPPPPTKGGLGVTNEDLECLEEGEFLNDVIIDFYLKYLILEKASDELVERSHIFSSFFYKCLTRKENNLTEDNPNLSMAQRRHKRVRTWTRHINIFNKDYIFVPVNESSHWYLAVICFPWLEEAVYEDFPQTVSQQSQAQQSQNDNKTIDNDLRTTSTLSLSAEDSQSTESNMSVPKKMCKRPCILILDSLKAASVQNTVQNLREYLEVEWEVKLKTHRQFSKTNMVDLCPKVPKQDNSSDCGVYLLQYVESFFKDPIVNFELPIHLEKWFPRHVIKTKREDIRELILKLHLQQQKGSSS
# Candida albicans [4] = assay: resistant Candida growth with fluconazole co-treatment – CaCi-8 strain, Alamar Blue, dry powder, set 3, dose response (AID 488905); type: functional, organism-based
# Candida albicans [5] = assay: Candida growth inhibition combined with fluconazole – CaCi-2 strain, Alamar Blue, dry powder, set 3, dose response (AID 488907); type: functional, organism-based
# [6] = target: T5, Glycogen synthase kinase-3 beta (Homo sapiens, UniProt P49841); assay: Inhibition of Human GSK-3 beta Activity Measured in Biochemical System Using Microfluidics - 2063-05_Inhibitor_Dose_DryPowder_Activity_Set2. [Related pubchem assays (depositor defined):AID2709]
# [7] = target: Glycogen synthase kinase-3 alpha (Homo sapiens, UniProt P49840); assay: Inhibition of Human GSK-3 alpha Activity Measured in Biochemical System Using Microfluidics - 2063-06_Inhibitor_Dose_DryPowder_Activity_Set2. [Related pubchem assays (depositor defined):AID2709]
# HEK293 = assay: EBV LMP1 TES2 canonical NF-kB signalling blockers – cell-based, HEK293, luciferase, cherry-pick, dose response (AID 588343); type: functional; details: Homo sapiens
# [8] = target: Latent membrane protein 1 (Human herpesvirus 4 (strain B95-8), UniProt P03230); assay: LMP1 TES1 pathway selectivity over dsRED control – imaging, HEK293T, dual-color eGFP/dsRED, cherry-picks, selectivity assay for LMP1 NF-kB inhibitor project, dose response (AID 588398); type: functional, cell-based
# [9] = target: Interleukin-1 receptor-associated kinase 4 (Homo sapiens, UniProt Q9NWZ3); type: functional
# [10] = target: Mitogen-activated protein kinase kinase kinase kinase 4 (Homo sapiens, UniProt O95819); type: functional
# [11] = target: Cell division cycle 7-related protein kinase (Homo sapiens, UniProt O00311); type: functional;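 further: value obtained from a kinome-wide kinase panel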
# [12] = target: Homeodomain-interacting protein kinase 2 (Homo sapiens, UniProt Q9H2X6); type: functional;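 further: measured within a kinome-wide kinase profiling panel, HIPK2 being one panel member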
# [13] = target: T5, Glycogen synthase kinase-3 beta; type: functional
# [14] = target: Dual specificity protein kinase CLK4 (Homo sapiens, UniProt Q9HAZ1); type: functional
# [15] = target: Serine/threonine-protein kinase pim-1 (Homo sapiens, UniProt P11309); type: functional
# [16] = target: cAMP-dependent protein kinase catalytic subunit alpha (Homo sapiens, UniProt P17612); type: functional
# [17] = target: Tyrosine-protein kinase receptor TYRO3 (Homo sapiens, UniProt Q06418); type: functional;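 further: TYRO3 value obtained as one member of a kinome-wide profiling panel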
# [18] = target: Dual specificity tyrosine-phosphorylation-regulated kinase 1B (Homo sapiens, UniProt Q9Y463); assay: Navigating the Kinome. Panel member name: DYRK1B; type: functional
# [19] = target: Proto-oncogene tyrosine-protein kinase receptor Ret (Homo sapiens, UniProt P07949); type: functional;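 further: measured within a kinome-wide profiling panel, RET as the panel member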
# INS1 [20] = assay: beta-cell survival under cytokine stress – INS-1E, ATP luminescence, dry powder, dose response (AID 488844); type: functional, cell-based; details: Rattus norvegicus
# INS1 [21] = assay: suppression of cytokine-induced beta-cell apoptosis – INS-1E, caspase luminescence, dry powder, beta-cell apoptosis inhibitor project, dose response (AID 488848); type: functional, cell-based; details: Rattus norvegicus
# INS1 [22] = assay: INS-1E mitochondrial potential rescue under cytokines – cell-based, JC-1 fluorescence ratio, dry powder, dose response (AID 488931); type: functional; details: Rattus norvegicus
# INS1 [23] = assay: suppression of NO production in INS-1E cells – cell-based, Griess absorbance, dry powder, set 2, dose response (AID 488868); type: functional; details: Rattus norvegicus
# [24] = target: Mitogen-activated protein kinase 8 (Homo sapiens, UniProt P45983); type: functional;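 further: value comes from one member of a kinome-wide kinase profiling panel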
# [25] = target: Platelet-derived growth factor receptor alpha (Homo sapiens, UniProt P16234); assay: Navigating the Kinome. Panel member name: PDGFRA; type: functional
# [26] = target: Cyclin-dependent kinase 5 (Homo sapiens, UniProt Q00535); type: functional;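 further: CDK5 measured as one member of a kinase profiling panel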
# [27] = Luminescence Cell-Based Dose Retest to Confirm Inhibitors of Cancer Stem Cells. [Related pubchem assays (depositor defined):AID2717, AID2721]; type: functional; details: Homo sapiens
# [28] = Vero cell cytotoxicity, cytotoxicity control for M. tuberculosis inhibitor project, purified and synthesized samples, set 3 (AID 504684); type: functional
# [29] = A Cell Based Secondary Assay to Explore Cytotoxicity in HepG2 Cells of Compounds that Modulate Mycobacterium tuberculosis in Media Containing Glycerol versus Media without Glycerol (2).; type: functional
# [30] = A Cell Based Secondary Assay to Explore Cytotoxicity in THP-1 Cells of Compounds that Modulate Mycobacterium tuberculosis in Media Containing Glycerol versus Media without Glycerol (2).; type: functional
# Aurora kinase A = Aurora kinase A (Homo sapiens, UniProt O14965); type: functional;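 further: value from the Navigating the Kinome kinase panel profiling, panel entry STK6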
# [31] = target: Dual specificity tyrosine-phosphorylation-regulated kinase 1A (Homo sapiens, UniProt Q13627); type: functional;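 further: measured against DYRK1A as one member of a broad kinome profiling panel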
# [32] = target: Protein kinase C theta type (Homo sapiens, UniProt Q04759); assay: Navigating the Kinome. Panel member name: PRKCQ; type: functional
# [33] = target: Cyclin-dependent kinase 19 (Homo sapiens, UniProt Q9BWU1); assay: Navigating the Kinome. Panel member name: CDC2L6; type: functional
# [34] = target: Vascular endothelial growth factor receptor 2 (Homo sapiens, UniProt P35968); type: functional
# [35] = target: Cyclin-dependent kinase 9 (Homo sapiens, UniProt P50750); type: functional;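 further: value from the CDK9 entry of a kinome-spanning kinase panel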
# [36] = target: Macrophage colony-stimulating factor 1 receptor (Homo sapiens, UniProt P07333); type: functional;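 further: value comes from the Navigating the Kinome screening panel, CSF1R member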
# [37] = target: Dual specificity mitogen-activated protein kinase kinase 1 (Homo sapiens, UniProt Q02750); assay: Navigating the Kinome. Panel member name: MAP2K1; type: functional
# Dual specificity mitogen-activated protein kinase kinase 1, sequence (Q02750 whole entry): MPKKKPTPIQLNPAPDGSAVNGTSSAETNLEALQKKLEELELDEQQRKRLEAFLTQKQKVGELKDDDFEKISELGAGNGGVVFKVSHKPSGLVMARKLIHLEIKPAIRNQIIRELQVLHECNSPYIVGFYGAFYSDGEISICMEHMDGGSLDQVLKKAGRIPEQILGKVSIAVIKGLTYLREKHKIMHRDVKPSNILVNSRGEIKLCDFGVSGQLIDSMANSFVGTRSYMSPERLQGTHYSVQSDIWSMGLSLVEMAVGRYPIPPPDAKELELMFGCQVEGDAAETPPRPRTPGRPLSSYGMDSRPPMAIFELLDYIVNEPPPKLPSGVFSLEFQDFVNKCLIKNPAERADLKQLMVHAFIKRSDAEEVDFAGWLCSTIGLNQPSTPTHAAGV
# Dual specificity protein kinase CLK4, sequence (Q9HAZ1 whole entry): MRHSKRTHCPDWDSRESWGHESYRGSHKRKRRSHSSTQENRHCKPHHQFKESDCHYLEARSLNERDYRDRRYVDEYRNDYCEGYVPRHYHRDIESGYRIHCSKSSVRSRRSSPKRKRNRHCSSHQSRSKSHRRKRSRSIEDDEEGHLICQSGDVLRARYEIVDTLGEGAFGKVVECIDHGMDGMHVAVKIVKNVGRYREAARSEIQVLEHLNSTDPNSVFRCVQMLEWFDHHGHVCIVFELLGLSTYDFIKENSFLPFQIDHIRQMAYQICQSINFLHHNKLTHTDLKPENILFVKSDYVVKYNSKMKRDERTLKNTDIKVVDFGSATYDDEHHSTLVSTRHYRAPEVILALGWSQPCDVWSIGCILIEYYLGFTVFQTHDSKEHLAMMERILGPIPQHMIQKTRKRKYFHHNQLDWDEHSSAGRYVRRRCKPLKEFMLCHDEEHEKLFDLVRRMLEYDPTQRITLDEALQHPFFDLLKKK
# T5 sequence (P49841 whole entry): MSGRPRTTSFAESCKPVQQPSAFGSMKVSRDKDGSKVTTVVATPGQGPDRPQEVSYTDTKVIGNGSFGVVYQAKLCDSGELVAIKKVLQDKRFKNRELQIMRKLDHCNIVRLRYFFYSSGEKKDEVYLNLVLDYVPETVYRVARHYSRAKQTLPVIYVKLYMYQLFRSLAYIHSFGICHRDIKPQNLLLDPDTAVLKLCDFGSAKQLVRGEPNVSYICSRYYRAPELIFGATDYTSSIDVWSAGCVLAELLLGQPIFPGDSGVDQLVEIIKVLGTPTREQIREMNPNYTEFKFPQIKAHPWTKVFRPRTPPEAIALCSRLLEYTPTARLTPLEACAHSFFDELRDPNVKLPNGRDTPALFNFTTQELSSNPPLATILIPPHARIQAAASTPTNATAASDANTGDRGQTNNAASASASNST
# Dual specificity tyrosine-phosphorylation-regulated kinase 1B, sequence (Q9Y463 whole entry): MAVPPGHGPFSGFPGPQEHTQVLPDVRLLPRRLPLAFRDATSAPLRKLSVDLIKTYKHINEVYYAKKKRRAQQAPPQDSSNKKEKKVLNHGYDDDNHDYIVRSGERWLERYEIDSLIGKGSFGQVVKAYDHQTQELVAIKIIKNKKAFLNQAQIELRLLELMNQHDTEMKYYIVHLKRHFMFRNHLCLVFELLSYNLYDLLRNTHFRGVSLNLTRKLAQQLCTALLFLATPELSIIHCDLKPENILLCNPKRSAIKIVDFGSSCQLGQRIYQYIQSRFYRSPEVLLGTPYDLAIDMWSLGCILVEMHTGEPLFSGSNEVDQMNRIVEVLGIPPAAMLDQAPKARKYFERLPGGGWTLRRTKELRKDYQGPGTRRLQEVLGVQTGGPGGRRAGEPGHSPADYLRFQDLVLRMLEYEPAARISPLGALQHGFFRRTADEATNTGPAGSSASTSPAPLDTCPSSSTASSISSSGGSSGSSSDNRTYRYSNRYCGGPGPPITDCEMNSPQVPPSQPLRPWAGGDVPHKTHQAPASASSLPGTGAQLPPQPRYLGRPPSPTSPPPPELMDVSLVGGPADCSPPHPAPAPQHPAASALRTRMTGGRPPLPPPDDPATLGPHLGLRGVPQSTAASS
# Vascular endothelial growth factor receptor 2, sequence (P35968 whole entry): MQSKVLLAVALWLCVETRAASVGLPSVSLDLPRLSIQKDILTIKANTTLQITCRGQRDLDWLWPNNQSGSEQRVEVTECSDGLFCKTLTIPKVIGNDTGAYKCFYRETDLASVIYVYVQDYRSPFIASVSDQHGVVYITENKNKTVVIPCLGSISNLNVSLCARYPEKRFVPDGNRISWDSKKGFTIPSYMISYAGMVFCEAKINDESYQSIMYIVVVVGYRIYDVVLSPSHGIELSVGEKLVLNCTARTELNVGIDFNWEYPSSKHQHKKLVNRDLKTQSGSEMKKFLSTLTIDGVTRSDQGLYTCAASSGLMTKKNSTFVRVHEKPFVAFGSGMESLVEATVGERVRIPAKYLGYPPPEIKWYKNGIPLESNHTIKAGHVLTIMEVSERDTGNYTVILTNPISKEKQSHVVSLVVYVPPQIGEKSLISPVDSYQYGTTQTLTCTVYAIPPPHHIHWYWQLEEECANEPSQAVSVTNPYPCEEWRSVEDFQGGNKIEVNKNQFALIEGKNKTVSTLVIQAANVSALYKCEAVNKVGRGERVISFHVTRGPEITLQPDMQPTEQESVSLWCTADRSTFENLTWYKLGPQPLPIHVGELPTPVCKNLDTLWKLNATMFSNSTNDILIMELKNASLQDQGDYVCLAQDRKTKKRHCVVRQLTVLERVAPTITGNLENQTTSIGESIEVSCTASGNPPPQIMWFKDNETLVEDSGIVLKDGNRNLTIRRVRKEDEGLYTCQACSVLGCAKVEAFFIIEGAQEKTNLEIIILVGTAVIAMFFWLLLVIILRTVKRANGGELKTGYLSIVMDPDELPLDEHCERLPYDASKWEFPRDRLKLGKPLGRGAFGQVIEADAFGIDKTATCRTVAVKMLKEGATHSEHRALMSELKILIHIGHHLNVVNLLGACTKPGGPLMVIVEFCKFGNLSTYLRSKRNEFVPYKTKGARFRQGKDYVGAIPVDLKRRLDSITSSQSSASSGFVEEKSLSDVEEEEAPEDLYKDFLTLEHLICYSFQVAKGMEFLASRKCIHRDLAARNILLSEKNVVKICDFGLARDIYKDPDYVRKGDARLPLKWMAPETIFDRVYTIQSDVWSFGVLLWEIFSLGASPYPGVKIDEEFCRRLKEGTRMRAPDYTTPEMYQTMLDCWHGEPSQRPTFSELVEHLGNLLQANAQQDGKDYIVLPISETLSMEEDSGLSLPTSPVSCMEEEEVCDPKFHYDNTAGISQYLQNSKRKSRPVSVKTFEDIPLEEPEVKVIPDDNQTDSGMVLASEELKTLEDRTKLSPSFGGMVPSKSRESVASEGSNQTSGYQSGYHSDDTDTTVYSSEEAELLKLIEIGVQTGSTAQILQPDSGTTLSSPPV
# Latent membrane protein 1, sequence (P03230 whole entry): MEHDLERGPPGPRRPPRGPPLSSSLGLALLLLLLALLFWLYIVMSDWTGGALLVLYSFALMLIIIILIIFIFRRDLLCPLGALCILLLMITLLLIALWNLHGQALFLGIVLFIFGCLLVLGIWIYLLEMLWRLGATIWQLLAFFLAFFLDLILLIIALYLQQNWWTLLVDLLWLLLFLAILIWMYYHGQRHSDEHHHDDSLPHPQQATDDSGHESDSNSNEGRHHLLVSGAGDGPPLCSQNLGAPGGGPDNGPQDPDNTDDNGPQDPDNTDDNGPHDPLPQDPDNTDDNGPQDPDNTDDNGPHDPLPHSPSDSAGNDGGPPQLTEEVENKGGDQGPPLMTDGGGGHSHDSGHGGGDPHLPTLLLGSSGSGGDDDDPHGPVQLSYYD
# Mitogen-activated protein kinase 8, sequence (P45983 whole entry): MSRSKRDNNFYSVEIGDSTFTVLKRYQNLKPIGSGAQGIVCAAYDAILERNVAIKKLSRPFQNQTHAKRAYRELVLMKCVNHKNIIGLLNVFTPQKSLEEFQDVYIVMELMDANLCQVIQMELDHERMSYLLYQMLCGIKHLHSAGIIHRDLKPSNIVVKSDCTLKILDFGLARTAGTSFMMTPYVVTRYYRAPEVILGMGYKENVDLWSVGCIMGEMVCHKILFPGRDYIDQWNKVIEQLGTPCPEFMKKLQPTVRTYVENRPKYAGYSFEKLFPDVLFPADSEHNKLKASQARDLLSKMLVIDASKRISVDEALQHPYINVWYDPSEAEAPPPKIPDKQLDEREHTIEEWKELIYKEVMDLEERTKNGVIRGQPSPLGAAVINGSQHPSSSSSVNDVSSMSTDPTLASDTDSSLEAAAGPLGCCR
# Serine/threonine-protein kinase pim-1, sequence (P11309 whole entry): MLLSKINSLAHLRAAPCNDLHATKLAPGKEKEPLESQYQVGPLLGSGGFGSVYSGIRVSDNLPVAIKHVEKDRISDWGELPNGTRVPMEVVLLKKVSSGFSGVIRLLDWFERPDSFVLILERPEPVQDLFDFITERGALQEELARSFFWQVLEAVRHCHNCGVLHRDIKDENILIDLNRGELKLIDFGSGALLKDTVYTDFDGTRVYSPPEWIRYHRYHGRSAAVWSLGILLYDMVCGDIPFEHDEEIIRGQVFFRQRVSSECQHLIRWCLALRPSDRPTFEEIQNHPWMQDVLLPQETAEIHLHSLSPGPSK
# Cyclin-dependent kinase 5, sequence (Q00535 whole entry): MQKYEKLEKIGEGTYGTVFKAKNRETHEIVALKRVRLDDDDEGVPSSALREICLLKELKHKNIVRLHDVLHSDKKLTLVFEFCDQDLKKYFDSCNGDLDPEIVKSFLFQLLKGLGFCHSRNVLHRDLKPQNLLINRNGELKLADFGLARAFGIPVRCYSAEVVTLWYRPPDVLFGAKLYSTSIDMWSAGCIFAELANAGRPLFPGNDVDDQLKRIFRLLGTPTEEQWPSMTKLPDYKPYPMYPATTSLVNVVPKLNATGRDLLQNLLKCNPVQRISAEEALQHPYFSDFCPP
structure (smiles),measurement,setting,value
COc1ccc(Br)c(C(=O)Nc2nc3ccc(C)cc3s2)c1,IC50,Caspase-3,3.57 µM (active)
same,IC50,[1],2.02 µM (active)
same,IC50,[2],1.78 µM (active)
same,IC50,[3],2.13 µM (active)
O=C(c1cccc(Cl)c1)N1CCN(c2ccccn2)CC1,AC50,Candida albicans [4],< 0.195 µM (active)
same,AC50,Candida albicans [5],0.073 µM (active)
CN(C)Cc1c(C(=O)N/N=C/c2ccncc2)nnn1-c1nonc1N,AC50,[6],0.255 µM (active)
same,AC50,[7],0.597 µM (active)
c1ccc(C2c3[nH]c4ccccc4c3CCN2Cc2cccn2-c2ccccn2)nc1 (centres undefined),AC50,HEK293,110 µM (active)
same,AC50,[8],29.8 µM (active)
CCCCNc1cc(-c2ccncc2)cc2[nH]nc(N)c12,Ki,[9],0.0794 µM (active)
same,Ki,[10],0.316 µM (active)
same,Ki,[11],0.0126 µM (active)
same,Ki,[12],0.398 µM (active)
same,Ki,[13],0.398 µM (active)
same,Ki,[14],0.00316 µM (active)
same,Ki,[15],2.51 µM (active)
same,Ki,[16],0.398 µM (active)
O=C1NS(=O)(=O)c2cccc(Cl)c21,Ki,[17],31.6 µM (active)
same,Ki,[18],50.1 µM (active)
same,Ki,[19],100 µM (active)
Cc1ccc(S(=O)(=O)N(C)C[C@@H]2Oc3c(NC(=O)Nc4ccc(F)cc4)cccc3C(=O)N([C@@H](C)CO)C[C@H]2C)cc1,AC50,INS1 [20],28.7 µM (active)
same,AC50,INS1 [21],27.4 µM (active)
same,AC50,INS1 [22],83.3 µM (active)
same,AC50,INS1 [23],41 µM (active)
Cc1[nH]c(=O)oc(=O)c1-c1ccccc1,Ki,[24],79.4 µM (active)
same,Ki,[25],63.1 µM (active)
same,Ki,[26],63.1 µM (active)
same,Ki,[14],20 µM (active)
S=c1[nH]cnc2nc[nH]c12 [MERCAPTOPURINE],AC50,[27],0.561 µM (active)
same,CC50,[28],76.5 µM (active)
same,CC50,[29],5.55 µM (active)
same,CC50,[30],30.4 µM (active)
NC(=O)c1cnn2c(-c3ccccc3)ccnc12,Ki,Aurora kinase A,> 63.1 µM (inactive)
same,Ki,[31],> 79.4 µM (inactive)
same,Ki,[32],> 100 µM (inactive)
same,Ki,[18],15.8 µM (active)
same,Ki,[33],> 100 µM (inactive)
same,Ki,[34],> 100 µM (inactive)
same,Ki,[35],> 63.1 µM (inactive)
same,Ki,[36],> 100 µM (inactive)
same,Ki,[37],50.1 µM (active)
same,Ki,[14],3.98 µM (active)
same,Ki,[16],> 50.1 µM (inactive)
